Measured values published in ChEMBL document CHEMBL4732115, “Discovery of novel cell-penetrating and tumor-targeting peptide-drug conjugate (PDC) for programmable delivery of paclitaxel and cancer treatment” (Eur J Med Chem, 2021).
The source made the active and inactive calls. The rule behind the calls is not given here. Peptide text beside a SMILES is read from it. * marks the point of attachment. X1 = CC(=O)O[C@H]1C(=O)[C@@]2(C)[C@H]([C@H](OC(=O)c3ccccc3)[C@]3(O)C[C@H](OC(=O)[C@H](OC(=O)OCCS*)[C@@H](NC(=O)c4ccccc4)c4ccccc4)C(C)=C1C3(C)C)[C@]1(OC(C)=O)CO[C@@H]1C[C@@H]2O; X2 = NCCCC[C@H](N*)C(=O)NC(=O)C1CCC(=O)N1

Tests used:
MCF7 [1] = assay: Cytotoxicity against human MCF7 cells assessed as reduction in cell viability measured after 48 hrs by MTT assay; assay type: functional, cell-based; settings: MCF7, 48 h
HeLa = assay: Cytotoxicity against human HeLa cells assessed as reduction in cell viability measured after 48 hrs by MTT assay; assay type: functional, cell-based
NCM460 = assay: Cytotoxicity against human NCM460 cells assessed as reduction in cell viability measured after 48 hrs by MTT assay; assay type: cell-based; settings: NCM460, 48 h
HEK293 = assay: Cytotoxicity against HEK293 cells assessed as reduction in cell viability measured after 48 hrs by MTT assay; assay type: cell-based; settings: Homo sapiens, HEK293, 48 h
Erythrocyte = assay: Hemolytic activity against human erythrocytes up to 80 uM measured after 1 hr; assay type: ADME, cell-based
[2] = target: 72 kDa type IV collagenase (Homo sapiens, UniProt P08253); assay: Drug metabolism in PBS buffer assessed as MMP2 (unknown origin)-mediated CPP-PTX formation at 0.5 uM measured after 2 hrs by LC-MS analysis; assay type: ADME
Sequence of 72 kDa type IV collagenase (P08253 whole entry): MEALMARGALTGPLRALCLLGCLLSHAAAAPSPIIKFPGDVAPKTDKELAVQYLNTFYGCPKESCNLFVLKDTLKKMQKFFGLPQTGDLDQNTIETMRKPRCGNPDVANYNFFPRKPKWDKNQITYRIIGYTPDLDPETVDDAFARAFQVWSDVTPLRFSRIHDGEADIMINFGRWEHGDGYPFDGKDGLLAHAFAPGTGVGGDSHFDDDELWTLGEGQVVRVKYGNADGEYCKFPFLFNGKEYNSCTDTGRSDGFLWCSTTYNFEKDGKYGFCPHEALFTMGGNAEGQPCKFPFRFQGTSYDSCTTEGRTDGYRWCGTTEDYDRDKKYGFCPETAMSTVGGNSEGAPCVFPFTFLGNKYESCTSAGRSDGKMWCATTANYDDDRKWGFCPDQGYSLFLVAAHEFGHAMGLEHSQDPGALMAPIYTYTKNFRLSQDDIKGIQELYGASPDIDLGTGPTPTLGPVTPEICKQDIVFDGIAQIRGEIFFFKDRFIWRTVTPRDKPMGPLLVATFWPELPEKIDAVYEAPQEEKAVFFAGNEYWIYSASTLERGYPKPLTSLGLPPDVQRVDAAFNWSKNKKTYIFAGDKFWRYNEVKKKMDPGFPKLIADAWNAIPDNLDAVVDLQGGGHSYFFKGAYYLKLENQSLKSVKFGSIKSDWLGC

[3] = Drug uptake in human MCF7 cells at 20 nM measured after 4 hrs by LC-MS analysis; assay type: ADME, cell-based; settings: mcf7, 4 h, 0.02 µM
MCF7 [4] = assay: Induction of mitochondrial membrane potential loss in human MCF7 cells at IC50 measured after 4 hrs by JC-1 staining based flow cytometry; assay type: functional, cell-based
MCF7 [5] = assay: Antimigratory activity against human MCF7 cells at 1.8 nM measured after 48 hrs by scratch wound-healing assay; assay type: functional, cell-based
MCF7 [6] = assay: Antitumor activity against human MCF7 cells xenografted in ip dosed BALB/c nude mouse assessed as tumor shrinkage administered every two days for two weeks; assay type: functional, organism-based; settings: dose 8-12 µmol/kg, time 2.0 weeks
MCF7 [7] = assay: Antitumor activity against human MCF7 cells xenografted in BALB/c nude mouse assessed as reduction in tumor weight at 8 umol/kg, ip administered every two days for two weeks relative to control; assay type: functional; parameters: scale not given: the % may be the effect or the level left; settings: dose 8 µmol/kg; time 2 weeks
MCF7 [8] = assay: Antitumor activity against human MCF7 cells xenografted in BALB/c nude mouse assessed as reduction in tumor volume at 12 umol/kg, ip administered every two days for two weeks relative to control; assay type: functional; parameters: scale not given: the % may be the effect or the level left; settings: dose 12 µmol/kg; time 2 weeks
MCF7 [9] = assay: Antitumor activity against human MCF7 cells xenografted in BALB/c nude mouse assessed as reduction in tumor weight at 12 umol/kg, ip administered every two days for two weeks relative to control; assay type: functional; parameters: scale not given: the % may be the effect or the level left; settings: dose 12 µmol/kg; time 2 weeks
[10] = Toxicity in human MCF7 cells xenografted in BALB/c nude mouse assessed as morphological changes in heart at 8 to 12 umol/kg, ip administered every two days for two weeks measured post last dose by H and E staining based histological analysis; assay type: organism-based; settings: in vivo, 336 h, dose 8-12 µmol/kg, time 2 weeks
[11] = Toxicity in human MCF7 cells xenografted in BALB/c nude mouse assessed as morphological changes in liver at 8 to 12 umol/kg, ip administered every two days for two weeks measured post last dose by H and E staining based histological analysis; assay type: organism-based; settings: in vivo, 336 h, dose 8-12 µmol/kg, time 2 weeks
[12] = Toxicity in human MCF7 cells xenografted in BALB/c nude mouse assessed as morphological changes in lung at 8 to 12 umol/kg, ip administered every two days for two weeks measured post last dose by H and E staining based histological analysis; assay type: organism-based; settings: in vivo, 336 h, dose 8-12 µmol/kg, time 2 weeks
MCF7 [13] = assay: Induction of apoptosis in human MCF7 cells xenografted in ip dosed BALB/c nude mouse assessed as up regulation of Bax expression administered every two days for two weeks measured post last dose by Western blot analysis; assay type: functional, organism-based; settings: dose 8-12 µmol/kg, time 2.0 weeks
[14] = Drug conversion in liver of BALB/c nude mouse xenografted with human MCF7 cells assessed as PTX formation at 8 to 12 umol/kg, ip measured after 2 hrs by LC-MS analysis; assay type: ADME, organism-based; settings: in vivo, dose 8-12 µmol/kg
[15] = Drug conversion in kidney of BALB/c nude mouse xenografted with human MCF7 cells assessed as PTX formation at 8 to 12 umol/kg, ip measured after 2 hrs by LC-MS analysis; assay type: ADME, organism-based; settings: in vivo, dose 8-12 µmol/kg
[16] = Drug conversion in heart of BALB/c nude mouse xenografted with human MCF7 cells assessed as T2-PTX formation at 8 to 12 umol/kg, ip measured after 2 hrs by LC-MS analysis; assay type: ADME, organism-based; settings: in vivo, dose 8-12 µmol/kg
[17] = Drug conversion in kidney of BALB/c nude mouse xenografted with human MCF7 cells assessed as T2-PTX formation at 8 to 12 umol/kg, ip measured after 2 hrs by LC-MS analysis; assay type: ADME, organism-based; settings: in vivo, dose 8-12 µmol/kg
[18] = Neurotoxicity in BALB/c mouse assessed as increase in pain sensitivity at 12 umol/kg, ip administered every two days for 14 days by hot-plate test; assay type: toxicity, organism-based; settings: in vivo, 336 h, dose 12 µmol/kg, time 14 day
[19] = Neurotoxicity in BALB/c mouse assessed as increase in pain sensitivity at 12 umol/kg, ip administered every two days for 14 days by hot water tail immersion test; assay type: toxicity, organism-based; settings: in vivo, 336 h, dose 12 µmol/kg, time 14 day
[20] = Neurotoxicity in BALB/c mouse assessed as change in DOPAC level at 12 umol/kg, ip administered every two days for 14 days measured post last dose by LC-MS analysis; assay type: toxicity, organism-based; settings: in vivo, 336 h, dose 12 µmol/kg, time 14 day
[21] = Neurotoxicity in BALB/c mouse assessed as change in glutamate level at 12 umol/kg, ip administered every two days for 14 days measured post last dose by LC-MS analysis; assay type: toxicity, organism-based; settings: in vivo, 336 h, dose 12 µmol/kg, time 14 day
[22] = Neurotoxicity in BALB/c mouse assessed as change in histidine level at 12 umol/kg, ip administered every two days for 14 days measured post last dose by LC-MS analysis; assay type: toxicity, organism-based; settings: in vivo, 336 h, dose 12 µmol/kg, time 14 day
[23] = Neurotoxicity in BALB/c mouse assessed as change in noradrenaline level at 12 umol/kg, ip administered every two days for 14 days measured post last dose by LC-MS analysis; assay type: toxicity, organism-based; settings: in vivo, 336 h, dose 12 µmol/kg, time 14 day
[24] = Neurotoxicity in BALB/c mouse assessed as change in vanillylmandelic acid level at 12 umol/kg, ip administered every two days for 14 days measured post last dose by LC-MS analysis; assay type: toxicity, organism-based; settings: in vivo, 336 h, dose 12 µmol/kg, time 14 day
[25] = Myelosuppression in BALB/c mouse assessed as change in lymphocyte count at 12 umol/kg, ip administered every two days for 14 days measured post last dose; assay type: ADME, organism-based; settings: in vivo, 336 h, dose 12 µmol/kg, time 14 day

Drug metabolism [2]: Metabolite_Detected | Drug uptake [3]: Active | Drug metabolism [14]: Metabolite_Notdetected | Drug metabolism [15]: Metabolite_Notdetected | Drug metabolism [16]: Metabolite_Notdetected | Drug metabolism [17]: Metabolite_Notdetected
Compound: CC(=O)O[C@H]1C(=O)[C@@]2(C)[C@H]([C@H](OC(=O)c3ccccc3)[C@]3(O)C[C@H](OC(=O)[C@H](OC(=O)OCCSSC[C@H](N)C(=O)N[C@@H](CC(C)C)C(=O)N[C@@H](CC(C)C)C(=O)N[C@@H](CCCCN)C(=O)N[C@@H](CCCNC(=N)N)C(=O)N[C@@H](Cc4ccccc4)C(=O)N[C@@H](Cc4ccccc4)C(=O)N[C@@H](CCCCN)C(=O)N[C@@H](CCCCN)C(=O)N[C@@H](Cc4ccccc4)C(=O)NCC(=O)N[C@@H](C)C(=O)N[C@@H](CC(C)C)C(=O)NCC(=O)N[C@@H](CC(C)C)C(=O)N4CCC[C@H]4C(=O)NCC(=O)N4CCC[C@H]4C(=O)N[C@@H](CCCNC(=N)N)C(=O)N[C@@H](CC(C)C)C(=O)NCC(=O)N[C@@H](Cc4ccc(O)cc4)C(=O)N[C@@H](CO)C(=O)N[C@@H](Cc4c[nH]c5ccccc45)C(=O)N[C@@H](CCCCN)C(=O)NC(=O)C4CCC(=O)N4)[C@@H](NC(=O)c4ccccc4)c4ccccc4)C(C)=C1C3(C)C)[C@]1(OC(C)=O)CO[C@@H]1C[C@@H]2O (some centres undefined) (H-C(X1)LLKRFFKKFGALGLPGPRLGYSW-X2)
IC50 (MCF7 [1]): 3.8 nM | IC50 (HeLa): 20.3 nM | IC50 (NCM460): > 80 nM | IC50 (HEK293): 66 nM | Activity (Erythrocyte): Non-Toxic | Activity (MCF7 [4]): Active | Activity (MCF7 [5]): Active | Activity (MCF7 [6]): Dose-dependent effect | Activity (MCF7 [7]): 67.1% | Activity (MCF7 [8]): 90.1% | Activity (MCF7 [9]): 83.4% | Activity [10]: Non-Toxic | Activity [11]: Non-Toxic | Activity [12]: Non-Toxic | Activity (MCF7 [13]): Dose-dependent effect | Activity [18]: Non-Toxic | Activity [19]: Non-Toxic | Activity [20]: Non-Toxic | Activity [21]: Non-Toxic | Activity [22]: Non-Toxic | Activity [23]: Non-Toxic | Activity [24]: Non-Toxic | Activity [25]: Non-Toxic
